One data set addresses T1, BpSDR (Paraburkholderia phymatum, UniProt B2JGP2).
T1 construct: gene Bphy_1038; residues 1-289, noncleavable N-terminal His6 tag (MAHHHHHHM-ORF), vector pBG1861, E. coli BL21(DE3); SEC monomer or dimer, prototypical SDR dimers by crystal symmetry
As to the kind of experiment: X-ray crystal structure, […] Å. The settings on record: co-crystallised with 4 mM NAD, pH 4.5-4.6, 14 °C; cofactor-binding domain; acetate from crystallisation solution in substrate site.

Data set [1] deals with the molecule itself. Briefly: crystal structure; space group C222(1), 1.80 A, three monomers in the asymmetric unit, with NAD and acetate; dimers generated by crystallographic symmetry.

As for `NC(=O)c1ccc[n+]([C@@H]2O[C@H](COP(=O)(O)OP(=O)(O)OC[C@H]3O[C@@H](n4cnc5c(N)ncnc54)[C@H](O)[C@@H]3O)[C@@H](O)[C@H]2O)c1` [NAD], the “X-ray crystal structure, 1.80 Å” value on BpSDR is “each monomer having an acetate molecule in the substrate-binding domain and a NAD molecule”.

B1: short-chain dehydrogenase/reductase from Burkholderia phymatum (enzyme)
chain: MFEFDGKVAVITGAGSGFGRAFAEKGASLGMKLVLADVDEGALARTVDTLRAAGAEVIGVRTDVSNGAQVQALADAALEAFGKVHLLFNNAGVGAGGFLWESSANDWAWVFGVNVMGVAHGVRVFAPIMLGQNEAAHIVNTASVAGLLSPPSMGIYNASKHAVVSLTETLYHDLRNAGGEVGCSLLCPAFVPTGIADAERVRPEALRNEAQPTRSQLAADRQLQRAVRSGKLGATDVATLTFEAIAERRFYILTHPAILATVRLRHEDIELQRNPTDPLSLKPEVKEAR
notes: short-chain dehydrogenase/reductase, Burkholderia phymatum STM815, UniProt B2JGP2, amino acids 1-289; Crystallised with 4 mM NAD; each monomer holds NAD and an acetate; 278 residues of each monomer are seen in the structure; also called BpSDR; SDR from B. phymatum; source: E. coli BL21(DE3), purified (IMAC, SEC); not shown: His6 (MAHHHHHH, noncleavable hexahistidine fusion tag from the vector …)
With B1, the binding result in data set [1] is listed as “binds”.

These data come from PMC8805215, “Crystal structure of a short-chain dehydrogenase/reductase from Burkholderia phymatum in complex with NAD” (Acta Crystallographica. Section F, Structural Biology …, 2022).
